The test system of test [1] is Plodia interpunctella larvae (0.6 mg penultimate instar to mid-last instar). In words: Bioassay chamber choice test of larval attraction, older larvae (early penultimate, newly molted last and mid-last instar). The test is classed as in vivo. The source says:
(§1) To isolate the attractant, the inventors bioassayed multiple materials that potentially comprised effective attractants. The bioassay chamber 10 was comprised of a Lincoln Wear-Ever (Fort Wayne, Ind.) baking pan (No. 9002) having the dimensions of 65 cm long, 45 cm wide and 2.5 cm high. A similarly sized Carb-x plastic top 12 (Rubbermaid Commercial Products Inc., Winchester, Va.) was modified for this application. (Note that FIG. 1 is a (top) plan view so that only the Carb-x plastic top 12 of the bioassay chamber is shown.)
The rows of three holes were ˜8 cm from the outer edge at the ends and ˜10 cm from the outer edge on the two sides, which spaced the three holes ˜12.5 cm apart, center to center. A 3.0 cm diameter hole 16 was drilled in the center of the top 12 to accept a bulkhead fitting 18 (# 16422, United States Plastic Corp., Lima, Ohio) complete with a right angle connection and a serrated vacuum hose 20. During the bioassay process, air was drawn into the chamber 10 through the six air inlet holes 14 and removed from the chamber 10 through the fitting 18 and vacuum hose 20 in the direction of the arrow 22.
Before each bioassay, the chambers 10 were washed with a dilute solution of Micro-90 detergent (International Products Corp, Burlington, N.J.), rinsed 3 times with tap water, 1 time with distilled water, 1 time with MeOH and air dried. Test samples were placed in flat polypropylene weigh boats. An individual sample was positioned at each end of the chamber 10 under the middle air inlets.
The six air inlet holes 14 were fitted with syringe ports (Part # MTL230-6, Value Plastics, Inc., Fort Collins, Colo.) and six 10 cc syringes 24 filled with activated charcoal were affixed. Low-density foam weather strip (6.3 mm thick×12.7 mm wide, not shown in FIG. 1) was attached along the four edges of the top 12 to form an airtight seal when placed on the bottom pan and tightened together with four Sparco Binder Clips, # 87010 (2″ wide, 1″ capacity) 26. A vacuum means (not shown) was attached to the vacuum hose 20 was adjusted to give an exit flow of ˜53 cc/min or one chamber volume (˜2.41) exchange every 45 min during the bioassay.
In addition to neonates, three other age groups of larvae were selected from the standardized cultures for bioassay to determine if they were attracted to the wheat grain and its components. These groups included newly molted penultimate instar (0.6±0.1 mg), newly molted last instar (3.2±0.2 mg) and mid-last instar (7.8±0.8 mg) (see Silhacek and Miller, 1972). In these assays, 10 larvae of the specified age, stage and weight range were transferred to the 16 mm sample cup at the beginning of the scotophase and immediately placed at the release point in the equilibrated bioassay chamber. The cover was secured to the chamber bottom and the larvae were given three hours to select the sample of choice and then the larvae on each sample were counted.
In the first set of tests, the relative attractiveness of the three major, commercially available kernel tissue fractions of wheat were assessed. The tissues were crude bran (Flint River Mills, Bainbridge, Ga.), Kretschmer's toasted wheat germ (Quaker Oats Co., Chicago, Ill.) and endosperm (organically grown, unbleached, unenriched all-purpose flour, Wards Super Market, Gainesville, Fla.).
The attractiveness of whole kernel wheat volatiles was examined by suspending a packet of whole wheat in the air stream entering the bioassay chamber over a sample of NASE. […]

Test [2] relates to Plodia interpunctella neonatal larvae. Kind of test: Bioassay chamber choice test of larval attraction, neonatal larvae. The test is classed as in vivo. Particulars: serially diluted, bioassayed over the range of 16 pg to 500 pg on 3MM pad; FIGS. 7 and 8.
Text: as §1
The rows of three holes were ˜8 cm from the outer edge at the ends and ˜10 cm from the outer edge on the two sides, which spaced the three holes ˜12.5 cm apart, center to center. […]
Plodia larvae used in this study were reared on a standardized Plodia diet (Silhacek and Miller, 1972) at 30° C., 70% r.h. and a 16L:8D photoperiod as described previously (Silhacek et al, 2003) using eggs collected over a 1 h interval during the 2 h period preceding the scotophase. […] The samples were then removed, mixed with Plodia diet and the larvae counted after two days of additional growth.
In the first set of tests, the relative attractiveness of the three major, commercially available kernel tissue fractions of wheat were assessed. […]

Results on two compounds are retold here after US8088366B2, “Attractant for Indian meal moth larve” (The United States of America, as represented by the …, priority 2009, dated 2012).

As for `CCCCCc1ccco1` [2-pentyl furan], the “attraction of older larvae at 31 pg” value in test [1] (31 pg on 3MM scintillation pad, three older age groups) is recorded as “Moderate but not significant attraction”. Further, in test [1] (250-500 pg, some larvae captured in non-attractive NASE sample), the “attraction of older larvae at 250-500 pg” value is on record as “Strong attraction”. For the same compound, the “attraction of all larval stages when bioassayed” value in test [1] (all larval stages of Plodia) is “attracted to picogram quantities”. Also, the “amount range of peak attraction of older larvae” value in test [1] (three older age groups, amount on 3MM pad) was 62.5 to 125 pg. In addition, in test [1] (through the middle (7.0-8.5 mg) of the final larval instar), the “larval attraction by stage of development” value is on record as “strong”. In test [2], the attractancy to neonates entry was “attractive at all levels tested between 32 and 500 pg”.

For `CCCCCC=O` [Hexanal, reference compound], the attractancy to neonates result in test [2] was “not attractive”.
